Laboratory results taken from article PMC11882074, “Identification of antimicrobial peptides from the Ambystoma mexicanum displaying antibacterial and antitumor activity” (PLOS One, 2025).
Residues, ends and D or L forms follow the SMILES beside them.

Columns and labels:
MRSA, ATCC# 43300 = assay type: cell-based, Staphylococcus aureus
Method: (§1) MIC assays (MRSA, ATCC# 43300/ MSSA, ATCC# 6538) were performed according to CLSI guidelines. […] Thereafter, samples were treated with peptide concentrations ranging from 10, 5, 2.5, 2, 1.75, 1.5 1.25, 1, 0,85, 0.625 and 0.313 µg/mL. Human antimicrobial peptide LL-37 was utilized as a positive control at a concentration of 256 μg/mL, as it is one of the best-known examples of AMP-based drug development. The assay was performed in triplicates. Efficacy was assessed according to the viable bacterial load determined by dilution plating and counting of Colony Forming Units (CFU). The lowest concentration that inhibited bacterial growth after 24 h of incubation is the MIC. Growth curve were performed using a plate reader (Synergy 2, Biotek).

[1] = tested on: T-47D mammary carcinoma cells; assay: Apoptosis assay (Apo-ONE Homogeneous Caspase-3/7) in T-47D cells; assay type: cell-based, human; details: for apoptotic activity compared to the control in T-47D cells: 1 µg/ml peptide; for apoptotic activity compared to the control in T-47D cells / caspase-3/7 activity (apoptotic induction) in T-47D cells: 24 h stimulation, fluorescence (RFU); for caspase-3/7 activity (apoptotic induction) in T-47D cells: 10 µg/ml peptide; for apoptosis in cancerous breast tissue cells (T-47D): all concentrations tested (1µg, 5µg, and 10µg), 24 h, compared with MCF10A, t-test
[2] = tested on: T-47D mammary carcinoma cells; assay: Gene expression analysis, Human Breast Cancer RT2 Profiler PCR array; assay type: cell-based; details: 10 µg/mL peptide, 24 h, ΔΔCt vs unstimulated control, fold change above 2
Method: Three 75 cm^2 cell culture flasks containing the T-47D and three 75 cm^2 cell culture flasks containing the MCF10A cells were individually stimulated with peptides 1, 12, or 13 at a concentration of 10 µg/mL. An unstimulated cell culture flask was left as a control. Cells were incubated for 24 hours according to standard protocol at 37°C and 5% CO2, in a humidified atmosphere.
After 24 hours, the cells were detached, and RNA was isolated according to the Macherey-Nagel kit. RNA quality was assessed using a NanoDrop 1000 spectrophotometer and gel electrophoresis. To create cDNA the iScript cDNA Synthesis Kit (BioRad) was used and followed according to manufacturer’s instructions. For gene expression analysis, the Human Breast Cancer RT2 Profiler PCR array was used (Qiagen) according to manufacturer’s instructions. On this plate, forward and reverse primers were already included in each well for the respective genes. The qPCR cycling conditions were as follows: 8.5 min at 95°C, […] at 55°C, […] at 72°C and 4°C as holding temperature. Housekeeping gene stability was validated, and results were geometrically averaged. Beta (β)-actin was used for endogenous controls. Expression of carcinogenic markers was quantified relative by the ΔΔCt method and results were normalized to housekeeping genes (Livak and Schmittgen, 2001). The Ct values of the untreated samples were set to zero. The Ct values of the MCF10A samples were subtracted from the Ct values of the T-47D samples. Relative gene expression was calculated from the zero line using Microsoft Excel Version 2016 software (Microsoft Cooperation, Redmond, WA, USA). The resulting higher or lower expressions of the analyzed genes were presented. Gene expression was measured using the BioRad i-Cycler.

MSSA, ATCC# 6538 = assay: MIC assay according to CLSI guidelines against MSSA; assay type: cell-based, Staphylococcus aureus; details: 24 h, 37°C; peptides listed in order of lowest to highest MIC; Fig 2A
Method: as §1

[3] = tested on: methicillin-resistant Staphylococcus aureus; details: no reference given, cited from earlier work
Method: We evaluated the antimicrobial activity of the synthesized peptides by assessing their MIC against Meticillin-Sensitive Staphylococcus aureus and Methicillin-resistant Staphylococcus aureus (MSSA and MRSA). […] The MIC of vancomycin of 2 µg/mL was used as ... || The skin mucus-derived AMPs were initially characterized, and 22 candidate peptides were identified and ranked based on their likelihood of having antibacterial activities (Table 1, Supl. 2).

Compound: CC[C@H](C)[C@H](NC(=O)CNC(=O)CNC(=O)[C@H](CO)NC(=O)[C@H](C)NC(=O)CNC(=O)[C@H](CC(C)C)NC(=O)[C@@H](NC(=O)[C@H](C)NC(=O)[C@@H](N)C(C)C)C(C)C)C(=O)NCC(=O)N[C@@H](CCC(N)=O)C(=O)N1CCC[C@H]1C(=O)N[C@@H](CC(C)C)C(=O)N[C@@H](CO)C(=O)N[C@@H](CC(C)C)C(=O)N[C@@H](CC(C)C)C(=O)N[C@@H](CC(C)C)C(=O)N[C@@H](CCCCN)C(=O)O [Peptide 1] (H-VAVLGASGGIGQPLSLLLK-OH)
- MIC against methicillin-resistant Staphylococcus aureus (MRSA) (MRSA, ATCC# 43300; ATCC# 43300, 24 h): 2 µg/mL

Compound: ILLLcVGEAGDTVQFAEYIQK [Peptide 12, synthetic analog of axolotl skin mucus AMP, rank 12]
- apoptotic activity compared to the control in T-47D cells [1]: increased apoptotic activity compared to the control
- caspase-3/7 activity (apoptotic induction) in T-47D cells [1]: highest levels of caspase-3/7 activity
- apoptosis in cancerous breast tissue cells (T-47D) [1]: significantly increased apoptosis
- genes with significant decrease in expression [2]: CCND2, EGF, GLI1, KRT5, MMP2, and SERPINE1
- genes with significant increase in expression [2]: BRCA1, JUN, NR3C1, RB1, SFN, and XBP1

Compound: FGANALLGVSLAVcKAGAAEK [Peptide 13, synthetic analog of axolotl skin mucus AMP, rank 13]
- apoptotic activity compared to the control in T-47D cells [1]: less distinct
- caspase-3/7 activity (apoptotic induction) in T-47D cells [1]: highest levels of caspase-3/7 activity
- apoptosis in cancerous breast tissue cells (T-47D) [1]: significantly increased apoptosis
- inhibitory effect against MRSA (MIC relative to vancomycin threshold of 2 µg/mL) (MRSA, ATCC# 43300; 24 h, 37°C, peptides listed in order of lowest to highest MIC, Fig 2A): inhibitory effect
- inhibitory effect against MSSA (MIC relative to vancomycin threshold of 2 µg/mL) (MSSA, ATCC# 6538): Inhibitory effects
- genes with significant decrease in expression [2]: IL6 and MMP2
- genes with significant increase in expression [2]: BRCA1, BRCA2, NR3C1, SERPINE1, and XBP1

Compound: CN[C@H](CC(C)C)C(=O)N[C@H]1C(=O)N[C@@H](CC(N)=O)C(=O)N[C@H]2C(=O)N[C@H]3C(=O)N[C@H](C(=O)N[C@H](C(=O)O)c4cc(O)cc(O)c4-c4cc3ccc4O)[C@H](O)c3ccc(c(Cl)c3)Oc3cc2cc(c3O[C@@H]2O[C@H](CO)[C@@H](O)[C@H](O)[C@H]2O[C@H]2C[C@](C)(N)[C@H](O)[C@H](C)O2)Oc2ccc(cc2Cl)[C@H]1O [vancomycin]
- MIC of vancomycin used as threshold for identifying inhibitory effects ([3]; threshold for MRSA and MSSA in Fig 2A): 2 µg/mL
- MIC values reported against similar MRSA strains ([3]; typical reported range): 0.5 to 2 µg/mL
